Measured values from patent US20100105657A1, “Compounds, Process for their Preparation, Intermediates, Pharmaceutical Compositions and their use in the Treatment of 5-HT6 Mediated Disorders such as Alzheimer's Disease, Cognitive Disorders, Cognitive Impairment Associated with Schizophrenia, Obesity and Parkinson's Disease” (AstraZeneca AB, priority 2005, published 2010).

Biological target: T1, Rat Striatal 5-HT6 Receptors (Rattus norvegicus, UniProt P31388)
T1 construct: Striatal tissue from adult rats (Sprague-Dawley, 320-370 g, B & K Sweden) were dissected out, weighed and homogenized; from tissue; host or cells: rat striatum (Sprague-Dawley) membranes
Assay: [125I]SB258585 binding to rat striatal 5-HT6 receptors
Conditions: competition with [125I]SB258585, rat striatal membranes
Protocol: Method for [125I]SB258585 Binding to Rat Striatal 5-HT6 Receptors
[^125I]SB258585 (1) with specific radioactivity 2000 Ci/mmol was purchased from Amersham Biosciences Europe GmbH, Freiburg, Germany. Other chemicals were purchased from commercial sources and were of analytical grade.
Striatal tissue from adult rats (Sprague-Dawley, 320-370 g, B & K Sweden) were dissected out, weighed and homogenized in buffer containing 50 mM Tris-HCl, 4 mM MgCl2, 1 mM EDTA, 10 μM pargyline and protease inhibitor (Complete, Roche Diagnostics) pH 7.4 using an Ultra-Turrax T8 (IKA Labortechnik, Germany). The tissue homogenate was centrifuged at 48 000×g for 10 min and the pellet was resuspended and recentrifuged as above. […]
Saturation binding studies were carried out in duplicate with 1-3 mg w.w. per tube in 0.5 ml buffer (50 mM Tris, 4 mM MgCl2, 100 mM NaCl, 1 mM EDTA, 5 mM ascorbate and 10 μM pargyline at pH 7.4), 0.2 nM [^125I]SB258585 and unlabelled SB258585 to give a final concentration range of 0.23-20 nM (12 conc.). Non-specific binding was determined in the presence of 10 μM methiothepin. […] The radioactivity was determined in a Packard Tri-Carb 2900TR liquid scintillation counter. Data were analyzed by non-linear regression analyses using PRISM 4.00 (GraphPad Software Inc., San Diego, Calif.). […]

T1 sequence (P31388 whole entry): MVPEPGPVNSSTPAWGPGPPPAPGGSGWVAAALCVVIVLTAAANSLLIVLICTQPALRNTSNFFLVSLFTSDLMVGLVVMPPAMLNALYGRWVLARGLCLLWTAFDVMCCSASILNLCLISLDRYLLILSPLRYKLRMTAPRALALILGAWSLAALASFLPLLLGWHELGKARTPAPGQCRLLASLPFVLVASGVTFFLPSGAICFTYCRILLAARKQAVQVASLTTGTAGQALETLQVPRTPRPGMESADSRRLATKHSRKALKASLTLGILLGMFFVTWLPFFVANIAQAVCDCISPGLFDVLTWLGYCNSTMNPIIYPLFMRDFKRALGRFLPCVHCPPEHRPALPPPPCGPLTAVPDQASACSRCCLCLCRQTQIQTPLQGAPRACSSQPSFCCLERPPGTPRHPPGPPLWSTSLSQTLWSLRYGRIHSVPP

Row | Ki [nM] | SMILES
1 | 32 ± 14 | O=S(=O)(Nc1ccc2c(c1)CNCCC2)c1csc(C(F)(F)F)c1-c1ccccc1 [Example 39, 4-phenyl-N-(2,3,4,5-tetrahydro-1H-2-benzazepin-8-yl)-5-(trifluoromethyl)thiophene-3-sulfonamide]
2 | 31 ± 9 | CN1CCOc2ccc(NS(=O)(=O)c3cccc(Cl)c3Cl)cc2C1 [Example 6, 2,3-dichloro-N-(4-methyl-2,3,4,5-tetrahydro-1,4-benzoxazepin-7-yl)benzenesulfonamide]
